Test [1] concerns the target T1, full length human farnesoid X receptor (Homo sapiens, UniProt Q96RI1).
T1 construct: CMX-farnesoid X receptor (full length human farnesoid X receptor); expressed in transfected cells; host or cells: CV-1 African Green Monkey Kidney cells
T1 sequence (Q96RI1 1-472 isoform Q96RI1-2): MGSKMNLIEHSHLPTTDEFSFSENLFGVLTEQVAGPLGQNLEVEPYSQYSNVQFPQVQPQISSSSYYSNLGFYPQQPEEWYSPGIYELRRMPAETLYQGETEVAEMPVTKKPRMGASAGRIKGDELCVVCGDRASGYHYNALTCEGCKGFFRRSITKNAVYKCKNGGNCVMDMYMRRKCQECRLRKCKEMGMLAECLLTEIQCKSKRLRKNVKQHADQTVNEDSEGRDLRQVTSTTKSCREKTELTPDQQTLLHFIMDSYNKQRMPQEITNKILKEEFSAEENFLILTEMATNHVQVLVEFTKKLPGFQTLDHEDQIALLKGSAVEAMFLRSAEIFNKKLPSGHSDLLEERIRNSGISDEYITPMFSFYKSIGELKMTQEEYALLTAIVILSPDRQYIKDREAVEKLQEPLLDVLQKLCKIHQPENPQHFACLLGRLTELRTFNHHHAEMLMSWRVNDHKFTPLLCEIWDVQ
T1 sequence (P19793 1-462 partner): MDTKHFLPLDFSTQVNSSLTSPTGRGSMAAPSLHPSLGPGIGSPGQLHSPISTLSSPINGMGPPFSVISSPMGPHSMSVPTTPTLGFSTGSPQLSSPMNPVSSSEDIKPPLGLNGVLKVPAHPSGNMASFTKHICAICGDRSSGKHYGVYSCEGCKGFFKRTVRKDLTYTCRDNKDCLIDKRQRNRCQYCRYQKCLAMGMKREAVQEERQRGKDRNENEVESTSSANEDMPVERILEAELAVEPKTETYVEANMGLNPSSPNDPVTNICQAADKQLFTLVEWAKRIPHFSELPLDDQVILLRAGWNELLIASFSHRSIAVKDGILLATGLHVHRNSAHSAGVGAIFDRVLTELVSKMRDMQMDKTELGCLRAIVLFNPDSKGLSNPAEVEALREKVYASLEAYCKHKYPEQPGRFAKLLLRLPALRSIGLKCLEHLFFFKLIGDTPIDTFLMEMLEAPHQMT
The experiment in a line: farnesoid X receptor/ECREx7 co-transfection assay (luciferase reporter, CV-1 cells). It counts as cell-based. The note with it: read-out: agonist activity EC50. The method, then:
The basic co-transfection protocol for measuring the farnesoid X receptor activity is as follows. CV-1 African Green Monkey Kidney cells were plated 24 hours before transfection to achieve approximately 70-80 percent confluency. Cells were transfected with the following expression vectors, CMX-farnesoid X receptor (full length human farnesoid X receptor), CMX-RXRα (full length human RXR), Luc12 (ECREx7-Tk-Luciferase) luciferase reporter gene construct. (See WO 00/76523, Venkateswaran et al., (2000) J. Biol. Chem. 275 14700-14707). A CMX-β-Galactosidase expression vector was used as a transfection control. The transfection reagent used was DOTAP (Boehringer Mannheim). Cells were incubated with the DOTAP/DNA mixture for 5 hours after which the cells were harvested and plated onto either 96 well or 384 well plates containing the appropriate concentration of test compound. The assay was allowed to continue for an additional 18-20 hours, after which the cells were lysed, with lysis buffer (1% triton X 100, 10% glycerol, 5 mM Dithiothreitol, 1 mM EGTA, 25 mM Tricine, pH 7.8) and the luciferase activity measured in the presence of Luciferase assay buffer (0.73 mM ATP, 22.3 mM Tricine, 0.11 mM EGTA, 0.55 mM Luciferin, 0.15 mM Coenzyme A, 0.5 mM HEPES, 10 mM Magnesium sulphate) on a standard luminomter plate reader (PE Biosystems, NorthStar Reader), using recommended operating instructions and conditions.
Both the farnesoid X receptor/ECREx7 co-transfection assay (Example 76) and the TR-FRET assay (Example 75) can be used to establish the EC50/IC50 values for potency and percent activity or inhibition for efficacy. Efficacy defines the activity of a compound relative to a high control (chenodeoxycholic acid, CDCA) or a low control (DMSO/vehicle). The dose response curves are generated from an 8 point curve with concentrations differing by ½ LOG units. Each point represents the average of 4 wells of data from a 384 well plate. The curve for the data is generated by using the equation: Y=Bottom+(Top−Bottom)/(1+10^((LogEC50−X)*HillSlope))
The EC50/IC50 is therefore defined as the concentration at which an agonist or antagonist elicits a response that is half way between the Top (maximum) and Bottom (baseline) values. The EC50/IC50 values represented are the averages of at least 3 independent experiments. The determination of the relative efficacy or % control for an agonist is by comparison to the maximum response achieved by chenodeoxycholic acid that is measured individually in each dose response experiment.
For the antagonist assay, CDCA is added to each well of a 384 well plate to elicit a response. The % inhibition for each antagonist is therefore a measurement of the inhibition of the activity of CDCA.

Test [2] deals with T2, farnesoid X receptor (Homo sapiens, UniProt Q96RI1).
T2 construct: fused on or other part: GST fused in frame to the N-terminus of the LBD (TR-FRET assay only); Nothing is fused on in the co-transfection assay
T2 sequence (Q96RI1 244-471 isoform Q96RI1-2 limits assumed): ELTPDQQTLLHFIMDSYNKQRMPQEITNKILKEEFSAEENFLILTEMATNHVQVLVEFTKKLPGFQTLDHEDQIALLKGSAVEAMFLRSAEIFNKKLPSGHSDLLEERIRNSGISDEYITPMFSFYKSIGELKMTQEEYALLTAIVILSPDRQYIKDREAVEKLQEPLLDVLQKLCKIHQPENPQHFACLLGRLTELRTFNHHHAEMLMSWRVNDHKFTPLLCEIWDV
The experiment in a line: one or more of the in vitro assays described herein (TR-FRET assay, Example 75; co-transfection assay, Example 76).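 Further: TR-FRET assay or luciferase reporter in CV-1 monkey kidney cells co-transfected with human FXR and RXRα, dose-response over 8 half-log concentrations, CDCA added in antagonist mode.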 The following applies: relative to maximum response of chenodeoxycholic acid (CDCA); read-out: efficacy.
Description: (Wallac/PE Life Sciences, Cat# AD0059A) in FRET assay buffer (20 mM KH2PO4/K2HPO4 (pH 7.3), 150 mM NaCl, 2 mM CHAPS, 2 mM EDTA, 1 mM DTT) in the presence of the test compound(s) for 2-4 hours at room temperature in a 384 well assay plate. Data was collected using an LJL Analyst using the standard operating instructions and conditions with readings at emission wavelengths of 615 nm and 665 nm after a delay of 65 ps and an excitation wavelength of 330 nm.
The basic co-transfection protocol for measuring the farnesoid X receptor activity is as follows. CV-1 African Green Monkey Kidney cells were plated 24 hours before transfection to achieve approximately 70-80 percent confluency. Cells were transfected with the following expression vectors, CMX-farnesoid X receptor (full length human farnesoid X receptor), CMX-RXRα (full length human RXR), Luc12 (ECREx7-Tk-Luciferase) luciferase reporter gene construct. […] A CMX-β-Galactosidase expression vector was used as a transfection control. The transfection reagent used was DOTAP (Boehringer Mannheim). Cells were incubated with the DOTAP/DNA mixture for 5 hours after which the cells were harvested and plated onto either 96 well or 384 well plates containing the appropriate concentration of test compound. The assay was allowed to continue for an additional 18-20 hours, after which the cells were lysed, with lysis buffer (1% triton X 100, 10% glycerol, 5 mM Dithiothreitol, 1 mM EGTA, 25 mM Tricine, pH 7.8) and the luciferase activity measured in the presence of Luciferase assay buffer (0.73 mM ATP, 22.3 mM Tricine, 0.11 mM EGTA, 0.55 mM Luciferin, 0.15 mM Coenzyme A, 0.5 mM HEPES, 10 mM Magnesium sulphate) on a standard luminomter plate reader (PE Biosystems, NorthStar Reader), using recommended operating instructions and conditions.

Test [3] has as its system normal mice. Put plainly: In vivo plasma lipid profile, normal mice, one week of daily oral dosing. More on the design: species or system mouse. The method, then:
To compare the effects of compounds on plasma lipid profiles, including but not limited to cholesterol and triglycerides, animals were dosed with compound for one week and plasma lipid levels monitored throughout the study. Male C57BL/6 mice (n=8) were dosed daily by oral gavage with vehicle or compound. Plasma samples were taken on day −1 (in order to group animals), day 1, 3, and 7. Samples were collected three hours after the daily dose. On day 7 of the study, following plasma collection, animals were euthanized and tissues, such as liver and intestinal mucosa were collected and snap frozen for further analysis. Plasma was analyzed for lipid parameters, such as total cholesterol, HDL cholesterol and triglyceride levels. RNA was extracted from frozen tissues for later analysis by quantitative real time PCR for regulation of key target genes. To identify specificity of target gene regulation by the farnesoid X receptor, knockout mice and C57BL/6 wild-type controls maybe used in this same protocol.

Test [4] deals with low density lipoprotein receptor deficient mice (LDLR^−/−). The experiment in a line: In vivo model of hyperlipidemia and atherosclerosis: LDLR−/− mice consuming a western diet. More on the design: species or system mouse.
Test [5] has as its system db/db mouse. Put plainly: In vivo model of diabetes and dyslipidemia: db/db mouse. The note with it: once daily 10 mg/kg for one week.
Where [6] appears, read: 10 mg/kg daily dosing for one week.
Where [7] appears, read: one week of daily dosing at 10 mg/kg.

Each structure is given as a SMILES string.

For the compound `O=C(NC1CCC1)C1=CN(C(=O)c2ccc(F)cc2)CCc2c1[nH]c1ccccc21` [3-(4-fluorobenzoyl)-1,2,3,6-tetrahydroazepino[4,5-b]indole-5-carboxylic acid cyclobutylamide], the concentration giving a half-maximal response (EC50) in test [1] is below 1 µM.

With `CCCOC(=O)C1=CN(C(=O)c2ccc(F)cc2)C(C)Cc2c1[nH]c1cc(F)ccc21` (centres unmarked) [n-propyl 3(4-fluorobenzoyl)-2-methyl-8-fluoro-1,2,3,6-tetrahydroazepino[4,5-b]indole-5-carboxylate], in test [1], the EC50 is below 1 µM.

Regarding `CCCOC(=O)C1=CN(C(=O)c2ccc(F)cc2)C(C)Cc2c1[nH]c1ccccc21` (centres unmarked) [n-propyl 3(4-fluorobenzoyl)-2-methyl-1,2,3,6-tetrahydroazepino[4,5-b]indole-5-carboxylate], in test [1], the EC50 was below 1 µM.

Turning to `CCOC(=O)C1=CN(C(=O)c2cccc(F)c2)CCc2c1[nH]c1ccccc21` [3-(3-fluorobenzoyl)-1,2,3,6-tetrahydroazepino[4,5-b]indole-5-carboxylic acid ethyl ester], the EC50 in test [1] is below 1 µM.

On to `CCOC(=O)C1=CN(C(=O)c2ccc(F)c(F)c2)CC(C)(C)c2c1[nH]c1ccccc21` [ethyl 3-(3,4-difluorobenzoyl)-1,1-dimethyl-1,2,3,6-tetrahydroazepino[4,5-b]indole-5-carboxylate], for which, in test [2], the Emax is above 100%. In test [3] (setting [6]), the “plasma HDL-cholesterol levels” value is recorded as “without affecting”, the “plasma non-HDL cholesterol” value was “significant lowering” and the plasma total cholesterol entry is “decreased”. Further, in test [3] (once daily dosing at 0.1-10 mg/kg for one week), the plasma triglyceride levels entry is listed as “significantly reduced”. In test [4] (setting [7]), the “decrease of plasma total cholesterol levels” value is recorded as around 50%, the non-HDL cholesterol entry is reported as “decrease” and the “reduction of plasma triglycerides” value is “greater than 50%”. For the same compound, in test [4] (treatment with compound), the “plasma free fatty acid concentration” value is “attenuated” and the plasma glucose concentration entry was “attenuated”. Also, in test [5], the “plasma free fatty acid levels” value is “declines”, the “reduction in non-HDL cholesterol” value is listed as “approximately 50%” and the “reduction in plasma triglycerides” value is recorded as “approximately 50%”.

The values above are taken from patent US7485634B2, “Azepinoindole and pyridoindole derivatives as pharmaceutical agents” (Exelixis, Inc., priority 2002, dated 2009).
